Experimental data published in PMC6150220, “An Optimized and Sensitive Pharmacokinetic Quantitative Method of Investigating Gastrodin, Parishin, and Parishin B, C and E in Beagle Dog Plasma using LC-MS/MS after Intragastric Administration of Tall Gastrodia Capsules” (Molecules : A Journal of Synthetic Chemistry and Natural …, 2017).

Test: in vivo
Protocol: After full validation, the LC-ESI-MS/MS method was used to analyze large batches of beagle dog plasma. […] The corresponding pharmacokinetic parameters were generated by fitting plasma concentration profiles to a non-compartmental model. These are summarized in Table 3, expressed as the mean ± SD (n = 5).
Quantitative analysis was conducted on a 1290 UPLC-photodiode array 6460 triple quadrupole mass spectrometry system (LC-MS/MS, Agilent Technologies, Palo Alto, CA, USA). Analysis was carried out on. Separation of analytes was performed on a reversed phase Agilent Zorbax XDB-C18 HPLC column (2.1 mm × 50 mm, particle size 3.5 μm) with the column oven set to 30 °C. The elution gradient was carried out with a binary solvent system consisting of an aqueous solution of 0.4% v/v formic acid in water (A) and acetonitrile (B) at a flow rate of 0.15 mL/min. Optimized separation was obtained according to a linear gradient (0–2 min, 2% B; 2–4 min, 2–12% B; 4–8 min, 12–20% B; 8–14 min, 20–28% B; […], 28–90% B). MS/MS conditions were as follows: negative ion mode, drying gas (N2) flow rate 8.0 L/min, drying gas temperature 300 °C, declustering potential 150 V, nebulizer pressure 45 psi, ESI Vcap 3500 V, sheath gas temperature 300 °C, sheath gas flow 12 L/min, nozzle voltage 500 V. The mass transition of gastrodin (m/z 331.1→123.0, CE: 3 eV), parishin (m/z 995.4→727.0, CE: 42 eV), parishin B (m/z 727.3→423.0, CE: 20 eV), parishin C (m/z 727.3→423.1, CE: 20 eV), parishin E (m/z 459.3→110.9, CE: 19 eV) and bergenin (m/z 327.0→234.0, CE: 4 eV).
Adult male […] beagle dogs (12 kg ± 0.020 kg) were purchased from Beijing Shahe Bio-Technology (Beijing, China; certificate No. SCXK2014-0007). Before drug administration, the dogs were fasted for 12 h with free access to water. They were maintained on a 12 h light-dark cycle (light on from 6:00 to 18:00 h) at ambient temperature (22–24 °C) with 60% relative humidity. The animals were observed twice daily and body weights were recorded once per day to assess their general health. All experimental protocols on animals were carried out according to the Guidelines of the Committee on the Care and Use of Laboratory Animals of China.
Fifteen beagle dogs were randomly divided into three groups to receive an intragastric dose of tall Gastrodia capsules (0.125, 0.25 and 0.5 g/kg). Capsules were ultrasonically dissolved in pure water and suspended at concentrations of 5, 10 and 20 mg/mL for intragastric administration. […] The HPLC quantitative analysis was based on the previous report with some modification. After administration, serial blood samples (about 2.00 mL) were collected from the foreleg vein […] into heparin-containing capillary tubes at 10, 20, 30, 45, 60, 120, 180, 240, 480, 720 and 1440 min. Blood samples were promptly centrifuged at 5000 rpm for 5 min, and the plasma was separated and stored at −20 °C until analysis.
Plasma samples were thawed to 4 °C before processing. An aliquot of 200 μL of the plasma sample was transferred into an Eppendorf tube, and 1000 μL of ice-cold 1% formic acid methanol containing IS (10 μL, 2.0 μg/mL) was added to precipitate the plasma proteins. Samples were then vortexed for 3 min and centrifuged at 12,000 rpm for 10 min. The supernatant was transferred and evaporated to dryness under a gentle stream of nitrogen at 40 °C. The residue was reconstituted in 200 μL of 5.0% methanol–water, and a 10 μL aliquot was injected for analysis.

[1] = male, beagle, dog, in vivo, po, 0.125 g/kg
[2] = male, beagle, dog, in vivo, po, 0.25 g/kg
[3] = male, beagle, dog, in vivo, po, 0.5 g/kg

Row | AUC(0-inf) [1] | AUC(0-t) [1] | Cmax [1] | MRT inf [1] | MRT last [1] | Tmax [1] | half-life [1] | AUC(0-inf) [2] | AUC(0-t) [2] | Cmax [2] | MRT inf [2] | MRT last [2] | Tmax [2] | half-life [2] | AUC(0-inf) [3] | AUC(0-t) [3] | Cmax [3] | MRT inf [3] | MRT last [3] | Tmax [3] | SMILES | also measured
1 | 1570 ± 533 ng·h/mL | 1550 ± 530 ng·h/mL | 526 ± 143 ng/mL | 2.32 ± 0.25 h | 2.25 ± 0.26 h | 1.25 ± 0.69 h | 1.08 ± 0.11 h | 2720 ± 1140 ng·h/mL | 2700 ± 1130 ng·h/mL | 746 ± 320 ng/mL | 2.84 ± 0.44 h | 2.78 ± 0.42 h | 1.8 ± 0.45 h | 1.18 ± 0.29 h | 4720 ± 2330 ng·h/mL | 4700 ± 2330 ng·h/mL | 1220 ± 562 ng/mL | 2.8 ± 0.42 h | 2.76 ± 0.44 h | 2 ± 0.71 h | O=C(O)CC(O)(CC(=O)OCc1ccc(OC2OC(CO)C(O)C(O)C2O)cc1)C(=O)OCc1ccc(OC2OC(CO)C(O)C(O)C2O)cc1 (centres unmarked) [Parishin B, parishin B] | Mean plasma clearance (CL) (male, beagle, dog, in vivo, po): 14.5 mL/min/kg; CL (plasma clearance) [1]: 12 ± 6.5 mL/min/kg; CL (plasma clearance) [2]: 13 ± 3.83 mL/min/kg; CL (plasma clearance) [3]: 18.5 ± 14 mL/min/kg; half-life [3]: 1.17 ± 0.22 h
2 | 359 ± 99.3 ng·h/mL | 349 ± 100 ng·h/mL | 107 ± 29.4 ng/mL | 2.7 ± 0.28 h | 2.47 ± 0.28 h | 1.35 ± 0.6 h | 1.37 ± 0.18 h | 578 ± 200 ng·h/mL | 567 ± 198 ng·h/mL | 144 ± 55.1 ng/mL | 3.31 ± 0.59 h | 3.14 ± 0.54 h | 2 ± 0.71 h | 1.56 ± 0.41 h | 1100 ± 527 ng·h/mL | 1090 ± 523 ng·h/mL | 243 ± 99.6 ng/mL | 3.25 ± 0.72 h | 3.18 ± 0.69 h | 2.4 ± 0.55 h | O=C(CC(O)(CC(=O)OCc1ccc(O[C@@H]2O[C@H](CO)[C@@H](O)[C@H](O)[C@H]2O)cc1)C(=O)O)OCc1ccc(O[C@@H]2O[C@H](CO)[C@@H](O)[C@H](O)[C@H]2O)cc1 [Parishin C, parishin C] | Mean plasma clearance (CL) (male, beagle, dog, in vivo, po): 16 mL/min/kg; CL (plasma clearance) [1]: 12 ± 3.83 mL/min/kg; CL (plasma clearance) [2]: 15.2 ± 3.83 mL/min/kg; CL (plasma clearance) [3]: 21 ± 17.5 mL/min/kg; half-life [3]: 1.29 ± 0.36 h
3 | 899 ± 299 ng·h/mL | 868 ± 314 ng·h/mL | 388 ± 116 ng/mL | 2 ± 0.3 h | 1.8 ± 0.42 h | 1 ± 0.56 h | 1.15 ± 0.18 h | 1520 ± 832 ng·h/mL | 1500 ± 836 ng·h/mL | 462 ± 230 ng/mL | 2.65 ± 0.44 h | 2.49 ± 0.4 h | 1.55 ± 0.62 h | 1.38 ± 0.34 h | 3280 ± 1370 ng·h/mL | 3270 ± 1370 ng·h/mL | 969 ± 292 ng/mL | 2.5 ± 0.35 h | 2.48 ± 0.36 h | 1.45 ± 0.76 h | O=C(CC(O)(CC(=O)OCc1ccc(OC2OC(CO)C(O)C(O)C2O)cc1)C(=O)OCc1ccc(OC2OC(CO)C(O)C(O)C2O)cc1)OCc1ccc(OC2OC(CO)C(O)C(O)C2O)cc1 (centres unmarked) [Parishin, parishin] | Mean plasma clearance (CL) (male, beagle, dog, in vivo, po): 52.3 mL/min/kg; CL (plasma clearance) [1]: 44.8 ± 16.8 mL/min/kg; CL (plasma clearance) [2]: 59.3 ± 29.2 mL/min/kg; CL (plasma clearance) [3]: 53 ± 27.5 mL/min/kg; half-life [3]: 1.05 ± 0.16 h

Row | SMILES | AUC(0-inf) [1] | AUC(0-t) [1] | Cmax [1] | MRT inf [1] | MRT last [1] | Tmax [1] | half-life [1] | AUC(0-inf) [2] | AUC(0-t) [2] | Cmax [2] | MRT inf [2] | MRT last [2] | Tmax [2] | half-life [2] | AUC(0-inf) [3] | AUC(0-t) [3] | Cmax [3] | MRT inf [3] | MRT last [3] | Tmax [3] | also measured
4 | OCc1ccc(O[C@@H]2O[C@H](CO)[C@@H](O)[C@H](O)[C@H]2O)cc1 [Gastrodin, gastrodin] | 5080 ± 2110 ng·h/mL | 4890 ± 2060 ng·h/mL | 1200 ± 120 ng/mL | 3.33 ± 1.09 h | 2.98 ± 1.01 h | 1.1 ± 0.52 h | 1.86 ± 0.67 h | 9170 ± 1790 ng·h/mL | 8830 ± 1860 ng·h/mL | 2050 ± 495 ng/mL | 3.8 ± 0.28 h | 3.46 ± 0.29 h | 1.75 ± 0.9 h | 1.9 ± 0.26 h | 17600 ng·h/mL | 17000 ng·h/mL | 3760 ± 778 ng/mL | 3.93 ± 0.99 h | 3.54 ± 0.69 h | 2 ± 0.71 h | Time after administration at which detected in plasma (beagle dog plasma, intragastric capsules, all three dosage levels): 10 min; CL (plasma clearance) (beagle dog plasma, intragastric tall Gastrodia capsules, high dose 0.5 g/kg, mean ± SD, n = 5): 3.5 ± 0.83 mL/min/kg; CL (plasma clearance) (beagle dog plasma, intragastric tall Gastrodia capsules, low dose 0.125 g/kg, mean ± SD, n = 5): 3.5 ± 2.17 mL/min/kg; CL (plasma clearance) (beagle dog plasma, intragastric tall Gastrodia capsules, medium dose 0.25 g/kg, mean ± SD, n = 5): 3.33 ± 0.67 mL/min/kg; Mean plasma clearance (CL) (beagle dogs, mean over the three intragastric dose levels of tall Gastrodia capsules): 3.3 mL/min/kg; half-life [3]: 2.09 ± 0.68 h
